Legend:
[1] = test system: β-amyloid-induced neurotoxicity; details: mice; cited from earlier work
[2] = test system: BChE; details: cited from earlier work
[3] = test system: AChE; details: cited from earlier work
[4] = molecular target: butyrylcholinesterase from equine serum (Equus caballus, UniProt P81908); assay: Butyrylcholinesterase; type: biochemical; details: read-out: % Inhibition at 100 μg/mL (BChE)
[5] = test system: neuronal cell death caused by oxidative stress; details: cited from earlier work
[6] = test system: mice with valium-impaired memory; details: radial arm maze; cited from earlier work

butyrylcholinesterase from equine serum, sequence (P81908 whole entry): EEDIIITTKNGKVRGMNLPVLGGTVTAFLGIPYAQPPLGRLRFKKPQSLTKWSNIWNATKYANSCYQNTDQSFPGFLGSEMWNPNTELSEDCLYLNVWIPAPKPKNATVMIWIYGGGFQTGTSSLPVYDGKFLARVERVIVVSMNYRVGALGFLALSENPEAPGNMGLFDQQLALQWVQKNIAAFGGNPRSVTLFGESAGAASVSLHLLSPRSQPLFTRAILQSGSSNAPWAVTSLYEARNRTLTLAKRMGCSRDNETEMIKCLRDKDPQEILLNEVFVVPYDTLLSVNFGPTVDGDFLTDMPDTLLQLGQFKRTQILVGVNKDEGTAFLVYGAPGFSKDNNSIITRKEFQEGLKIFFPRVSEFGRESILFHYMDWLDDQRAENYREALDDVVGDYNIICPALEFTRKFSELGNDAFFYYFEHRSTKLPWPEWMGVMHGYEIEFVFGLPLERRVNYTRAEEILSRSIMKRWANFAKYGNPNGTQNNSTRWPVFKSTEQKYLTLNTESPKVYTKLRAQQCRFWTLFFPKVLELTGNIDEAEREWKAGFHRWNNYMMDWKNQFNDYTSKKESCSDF

Structure (SMILES): O=C(O)/C=C/c1ccc(O)cc1 [p-coumaric, p-coumaric acid]
- β-amyloid-induced neurotoxicity [1]: attenuate

Structure (SMILES): CC[C@H](CC[C@@H](C)[C@H]1CC[C@H]2[C@@H]3CC=C4C[C@@H](O)CC[C@]4(C)[C@H]3CC[C@]12C)C(C)C [β-sitosterol]
- inhibitory effect on BChE [2]: no appreciable inhibitory effect
- inhibitory effect on AChE [3]: no appreciable inhibitory effect

Structure (SMILES): COc1cc(/C=C/C(=O)O)ccc1O [ferulic acid]
- β-amyloid-induced neurotoxicity [1]: attenuate

Structure (SMILES): CNC(=O)Oc1ccc2c(c1)[C@]1(C)CCN(C)[C@@H]1N2C [Physostigmine, physostigmine, reference compound]
- inhibition at 100 µg/mL [4]: 94.94 ± 0.04%

Structure (SMILES): O=c1c(O[C@@H]2O[C@H](CO)[C@@H](O)[C@H](O)[C@H]2O)c(-c2ccc(O)cc2)oc2cc(O)cc(O)c12 [Compound 13, kaempferol 3-O-β-glucopyranoside]
- inhibition at 100 µg/mL [4]: 7.45 ± 0.72%

Structure (SMILES): Cc1c(C)c2c(c(C)c1O)CC[C@@](C)(CCC[C@H](C)CCC[C@H](C)CCCC(C)C)O2 [α-Tocopherol, α-tocopherol]
- protection against neuronal cell death caused by oxidative stress [5]: protective effects

Structure (SMILES): C/C=C(\CC[C@@H](C)[C@H]1CC[C@H]2[C@@H]3CC=C4C[C@@H](O)CC[C@]4(C)[C@H]3CC[C@]12C)C(C)C [Fucosterol, fucosterol]
- BChE inhibitory activity [2]: weak BChE inhibitory activity

Structure (SMILES): O=c1c(O)c(-c2ccc(O)cc2)oc2cc(O)cc(O)c12 [kaempferol]
- spatial learning and memory [6]: significantly improved
